7 molecules from patent US8871765B2, “Substituted 4-(4-fluoro-3-(piperazine-1-carbonyl)benzyl)phthalazin-1(2H)-one derivatives as poly (ADP-ribose) polymerase-1 inhibitors” (Cadila Healthcare Limited, priority 2010, dated 2014) can be followed below.

For one test, the system named is MCF-7 cell line. Kind of test: Potentiation of cell killing activity of Methyl Methane Sulphonate (MMS) in MCF-7 cells, MTT assay. To be noted: compound at 100 nM, cell survival without/with alkylating agent MMS. Format: cell-based. On the procedure:
Potentiation of cell killing activity of Methyl Methane Sulphonate (MMS) by selected compounds according to present invention was evaluated in MCF-7 cell line obtained from National Centre for Cell Science, Pune, by using MTT assay according to general protocol described in Methods in Molecular Biology, Volume-43, In vitro Toxicity Testing Protocol, Chapter-6, page: 137-149. Compounds were tested for PARP 1 activity based on percent cell survival of MCF-7 cells with alkylating agent MMS.
A general note: Formazan colour is commonly taken as a measure of viable cells.

The next test addresses T1, PARP-1 (Homo sapiens, UniProt P09874).
T1 construct: purchased Trevigen
Kind of test: PARP-1 inhibitory activity, HT universal colorimetric PARP assay kit (Trevigen). To be noted: HT universal colorimetric PARP assay kit; read-out: PARP-1 activity in vitro IC50 nM). Format: biochemical. The procedure:
The compounds were tested for PARP-1 inhibitory activity by using HT universal colorimetric PARP assay kit obtained from Trevigen, following manufacturer's protocol.

T1 sequence (P09874 whole entry): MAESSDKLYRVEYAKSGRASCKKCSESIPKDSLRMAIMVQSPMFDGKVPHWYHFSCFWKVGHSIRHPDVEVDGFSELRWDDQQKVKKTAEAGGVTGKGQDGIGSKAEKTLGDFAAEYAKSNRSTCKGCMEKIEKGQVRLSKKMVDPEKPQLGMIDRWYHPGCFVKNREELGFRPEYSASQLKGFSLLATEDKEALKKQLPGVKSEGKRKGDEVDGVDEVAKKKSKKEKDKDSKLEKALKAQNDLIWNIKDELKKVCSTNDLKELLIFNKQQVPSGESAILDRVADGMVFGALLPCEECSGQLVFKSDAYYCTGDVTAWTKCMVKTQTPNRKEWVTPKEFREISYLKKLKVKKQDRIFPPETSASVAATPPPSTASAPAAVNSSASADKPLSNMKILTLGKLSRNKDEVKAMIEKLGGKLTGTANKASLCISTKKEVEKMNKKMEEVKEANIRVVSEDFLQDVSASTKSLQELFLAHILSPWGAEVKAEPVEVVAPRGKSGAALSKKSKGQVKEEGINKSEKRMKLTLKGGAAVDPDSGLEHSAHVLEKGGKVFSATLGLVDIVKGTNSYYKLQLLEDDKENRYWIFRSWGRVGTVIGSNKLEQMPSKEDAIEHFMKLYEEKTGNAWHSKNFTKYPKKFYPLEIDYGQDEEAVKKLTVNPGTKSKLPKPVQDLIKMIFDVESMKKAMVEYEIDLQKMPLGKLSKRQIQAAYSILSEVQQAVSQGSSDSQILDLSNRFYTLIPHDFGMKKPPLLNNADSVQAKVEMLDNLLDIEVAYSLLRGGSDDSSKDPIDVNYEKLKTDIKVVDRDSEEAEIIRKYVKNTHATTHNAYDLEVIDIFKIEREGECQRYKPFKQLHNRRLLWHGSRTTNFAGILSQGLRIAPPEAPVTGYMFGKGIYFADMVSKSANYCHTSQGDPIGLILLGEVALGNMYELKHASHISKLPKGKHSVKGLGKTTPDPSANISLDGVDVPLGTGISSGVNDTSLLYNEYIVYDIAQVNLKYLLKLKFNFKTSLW

As a reminder, the IC50 is the concentration that inhibits the measured activity by half. `CC(C)(Sc1ccc(F)cc1)C(=O)N1CCN(C(=O)c2cc(Cc3n[nH]c(=O)c4ccccc34)ccc2F)CC1` [Example 22, 4-(4-fluoro-3-(4-(2-((4-fluorophenyl)thio)-2-methylpropanoyl)piperazine-1-carbonyl)benzyl)phthalazin-1(2H)-one]: the “Survival affected by drug [(−MMS/+MMS)] at 100 nM” value (shortened to “Survival affected by drug”) in the test with MCF-7 cell line is on record as 2.1. Besides, the concentration for half-maximal inhibition (IC50) on PARP-1 was 5.3 nM.
On the same counts, the results for `CC(C)(Nc1ccccc1)C(=O)N1CCN(C(=O)c2cc(Cc3n[nH]c(=O)c4ccccc34)ccc2F)CC1` [Example 35, 4-(4-fluoro-3-(4-(2-methyl-2-(phenylamino)-propanoyl)piperazine-1-carbonyl)benzyl)phthalazin-1(2H)-one] are 3.33 and 3.56 nM.
As to `CC(C)(Sc1cc(Cl)ccc1Cl)C(=O)N1CCN(C(=O)c2cc(Cc3n[nH]c(=O)c4ccccc34)ccc2F)CC1` [Example 33, 4-(3-(4-(2-((2,5-dichlorophenyl)thio)-2-methylpropanoyl)piperazine-1-carbonyl)-4-fluorobenzyl)phthalazin-1(2H)-one], the “Survival affected by drug” value in the test on MCF-7 cell line stood at 1.98. At PARP-1, the half-maximal inhibitory concentration (IC50) came out at 7.9 nM.
For the molecule `CC(C)(Oc1ccccc1[N+](=O)[O-])C(=O)N1CCN(C(=O)c2cc(Cc3n[nH]c(=O)c4ccccc34)ccc2F)CC1` [Example 19, 4-(4-fluoro-3-(4-(2-methyl-2-(2-nitrophenoxy)propanoyl)piperazine-1-carbonyl)benzyl)phthalazin-1(2H)-one], the “Survival affected by drug” value with MCF-7 cell line is on record as 2.19. For the same molecule, the IC50 on PARP-1 worked out at 12.4 nM.
`CC(C)(Sc1ccc(F)cc1F)C(=O)N1CCN(C(=O)c2cc(Cc3n[nH]c(=O)c4ccccc34)ccc2F)CC1` [Example 27, 4-(3-(4-(2-((2,4-difluorophenyl)thio)-2-methylpropanoyl)piperazine-1-carbonyl)-4-fluorobenzyl)phthalazin-1(2H)-one]: the “Survival affected by drug” value in the test with MCF-7 cell line is 2.49. In addition, the IC50 on PARP-1 was determined as 5.17 nM.
Consider `CC(C)(C(=O)N1CCN(C(=O)c2cc(Cc3n[nH]c(=O)c4ccccc34)ccc2F)CC1)[S+]([O-])c1ccc(F)cc1` (centres unmarked) [Example 25, 4-(4-fluoro-3-(4-(2-((4-fluorophenyl)sulfinyl)-2-methylpropanoyl)piperazine-1-carbonyl)benzyl)phthalazin-1(2H)-one], for which, in the test on MCF-7 cell line, the “Survival affected by drug” value was determined as 2.15. The IC50 on PARP-1 was determined as 5.94 nM.
Take `CC(C)(C(=O)N1CCN(C(=O)c2cc(Cc3n[nH]c(=O)c4ccccc34)ccc2F)CC1)S(=O)(=O)c1ccc(F)cc1` [Example 24, 4-(4-fluoro-3-(4-(2-((4-fluorophenyl)sulfonyl)-2-methylpropanoyl)piperazine-1-carbonyl)benzyl)phthalazin-1(2H)-one]: the “Survival affected by drug” value in the test with MCF-7 cell line worked out at 2.28. Further, the 50% inhibitory concentration (IC50) on PARP-1 came to 4.66 nM.
